Our source for the Activity values is ChEMBL document CHEMBL4665818, “Calvatianone, a Sterol Possessing a 6/5/6/5-Fused Ring System with a Contracted Tetrahydrofuran B-Ring, from the Fruiting Bodies of Calvatia nipponica” (J Nat Prod, 2020).

Common to all, as to assay type: functional, cell-based
For experiment [1], the system named is MCF7. Kind of experiment: Cytotoxicity against human MCF7 cells assessed as reduction in cell viability <= 100 uM after 24 hrs by MTT assay. The note with it: dose microM <=100, time 24.0 hrs. A general note: Tetrazolium dyes change colour on reduction, which living cells bring about.
Experiment [2] has as its system MCF7. As to the kind of experiment: Cytotoxicity against human MCF7 cells assessed as reduction in cell viability at 100 nM after 24 hrs in presence of ER antagonist ICI 182,780 by MTT assay.
The test system of experiment [3] is MCF7. As to the kind of experiment: Cytotoxicity against human MCF7 cells assessed as 17beta-estradiol-induced reduction in cell viability at 100 uM after 24 hrs by MTT assay.
The test system of experiment [4] is MCF7. As to the kind of experiment: Cytotoxicity against human MCF7 cells assessed as 17beta-estradiol-induced reduction in cell viability at 200 uM after 24 hrs by MTT assay.

Calls of active or inactive are those of the source. The calls are words filed in the database; no cut-off is given here.

On to `CC(C)[C@@H](C)/C=C/[C@@H](C)[C@H]1CC[C@@H]2[C@]1(C)CC=C1[C@]23C=C[C@]2(C[C@@H](O)CC[C@]12C)OO3`, for which the outcome in experiment [1] and in experiment [2] was Active.
As for `COC(=O)C[C@]12OC3=CC(=O)CC[C@]3(C)[C@H]1CC[C@]1(C)[C@@H]([C@H](C)/C=C/[C@H](C)C(C)C)CC[C@H]12`, the result in experiment [1] and in experiment [2] was Active.
In the case of `CC(C)[C@@H](C)/C=C/[C@@H](C)[C@H]1CC[C@@H]2[C@]1(C)CC[C@H]1[C@]23C=C[C@]2(C[C@@H](O)CC[C@]12C)OO3`, the outcome in experiment [1], in experiment [3] and in experiment [2] was Active.
As to `CC(C)[C@@H](C)/C=C/[C@@H](C)[C@H]1CC[C@H]2[C@]3(O)C=CC4=CC(=O)CC[C@]4(C)[C@H]3CC[C@]12C`, the result in experiment [4], in experiment [1] and in experiment [2] was Active.
As for `CC(C)[C@@H](C)/C=C/[C@@H](C)[C@H]1CCC(=O)[C@]23CC(=O)[C@@H]4CC(=O)CC[C@]4(C)[C@H]2CC[C@]13C`, the outcome in experiment [1] and in experiment [2] was Active.
